From patent publication US9878007B2, “Syndecan peptides and polypeptides as inhibitors of vascular endothelial growth factor receptor-2 (VEGFR2) and very late antigen-4 (VLA-4)” (Wisconsin Alumni Research Foundation, priority 2015, dated 2018)
No end group written: not given here.

Key:
Type in all cases: cell-based
VEGFR2 = target: T1, VEGFR2 (Homo sapiens, UniProt P35968); assay: VEGFR2 activation (pY1054/1059 immunoblot) in HPSE^low CAG cells; settings: 0.3 μM peptide, 2.5 h
T1 construct: endogenous in cells; host or cells: CAG human myeloma cells (HPSE^low = empty vector; HPSE^high = human HPSE cDNA)
Method: FIGS. 4A-C. HPSE expression leads to activation of VEGFR2 when α4-integrin engages ligand. (FIG. 4A) HPSE^low and HPSE^high cells treated with or without 1 μM Vandetanib, 20 ng/ml VEGF, or 20 μg/ml VEGFR2 blocking antibody are plated on VCAM-1 to observe cell spreading (Bar=50 μm); (FIG. 4B) HPSE^high cells plated on FN were treated with MMP-9 blocking antibody or 1 μM Vandetanib in the absence or presence of 0.3 μM S1ED^210-236 (Bar=50 μm); (FIG. 4C) HPSE^low cells were kept in suspension or were seeded on FN in the absence or presence of 0.3 μM S1ED^210-236 for 2.5 h. Cell lysates were immunoblotted with antibodies against pY1054/1059 in VEGFR2 as a marker of VEGFR2 activation. Actin is shown as a loading control.
The inventors next questioned whether VEGFR2 is upstream (e.g., responsible for shedding) or downstream (e.g., a target of the shed Sdc1) of Sdc1 shedding by testing whether or not Sdc1 mimetic peptide could rescue Vandetinib-blocked spreading. HPSE^high cell spreading on FN was inhibited using either anti-MMP9 blocking antibody or Vandetanib in the presence or absence of S1ED^210-236. […] VEGFR2 activation was assessed by measuring autophosphorylation at Tyr1054/1059 in its kinase domain (Lamalice et al., 2007).

[1] = test system: P3x63Ag8 mouse myeloma cells; assay: Adhesion of P3x63Ag8 myeloma cells to FN; settings: 30 uM peptide, 2.5 hr
Method: (§1) FIG. 7A-B. S1ED^214-236, specific for VEGFR2 coupling to VLA-4, blocks myeloma cell invasion but not adhesion. (FIG. 7A) P3x63Ag8 mouse myeloma cells are plating on the VLA-4 ligand FN in the presence or absence of 30 uM S1ED^210-233 (SEQ ID No: 4) or S1ED^214-236 (SEQ ID No: 7) for 2.5 hr. (FIG. 7B) P3x63Ag8 myeloma cells are plated on FN-coated filters in the presence of HPSE inhibitor OGT2115, VLA-4 blocking antibody P1H4, VEGFR2 inhibitor Vandetanib or S1ED^210-233 or S1ED^214-236 and allowed to migrate through the filter for 16 hr. Small black dots are the pores in the filter.
Nitrocellulose-coated slides were coated for 2 hr at 37° C. with 40 μg/ml FN (kindly provided by Dr. Donna Peters, University of Wisconsin-Madison) or 5 μg/ml recombinant VCAM-1/Fc chimera (R&D Systems) in calcium and magnesium-free PBS (CMF-PBS; 135 mM NaCl, 2.7 mM KCl, 10.2 mM Na2HPO4-7H20 and 1.75 mM KH2PO4, pH7.4). Slides were blocked for 1 hr at 37° C. with RPMI 1640 containing 1% heat-denatured BSA (plating medium). Cells in plating medium were allowed to attach and spread for 2.5 hr at 37° C. Slides were fixed in 4% EM grade paraformaldehyde (Electron Microscopy Sciences) in CMF-PBS and labeled for 30 min in 0.13 μM rhodamine phalloidin (Invitrogen) in CMF-PBS. Coverslips were mounted in non-fluorescing mounting medium (Immumount; Thermo Shandon) and allowed to dry. […]

[2] = test system: P3x63Ag8 mouse myeloma cells; assay: Invasion of P3x63Ag8 myeloma cells through FN-coated filters; settings: 16 hr
Method: as §1
The bottom chambers of Transwell filter chambers (8 μm pores; Corning) were coated with 40 μg/ml of FN. Cells (5×10^5 in 0.2 ml plating medium) were placed in the upper chamber and incubated for 16 hr at 37° C. in the CO2 incubator. After incubation, cells in the upper chamber were removed and cells on the bottom side of the filter were fixed in 4% paraformaldehyde (PFA) and stained with 0.1% Crystal Violet before imaging. Cells from at least five random fields were counted.

T1 sequence (P35968 20-1356): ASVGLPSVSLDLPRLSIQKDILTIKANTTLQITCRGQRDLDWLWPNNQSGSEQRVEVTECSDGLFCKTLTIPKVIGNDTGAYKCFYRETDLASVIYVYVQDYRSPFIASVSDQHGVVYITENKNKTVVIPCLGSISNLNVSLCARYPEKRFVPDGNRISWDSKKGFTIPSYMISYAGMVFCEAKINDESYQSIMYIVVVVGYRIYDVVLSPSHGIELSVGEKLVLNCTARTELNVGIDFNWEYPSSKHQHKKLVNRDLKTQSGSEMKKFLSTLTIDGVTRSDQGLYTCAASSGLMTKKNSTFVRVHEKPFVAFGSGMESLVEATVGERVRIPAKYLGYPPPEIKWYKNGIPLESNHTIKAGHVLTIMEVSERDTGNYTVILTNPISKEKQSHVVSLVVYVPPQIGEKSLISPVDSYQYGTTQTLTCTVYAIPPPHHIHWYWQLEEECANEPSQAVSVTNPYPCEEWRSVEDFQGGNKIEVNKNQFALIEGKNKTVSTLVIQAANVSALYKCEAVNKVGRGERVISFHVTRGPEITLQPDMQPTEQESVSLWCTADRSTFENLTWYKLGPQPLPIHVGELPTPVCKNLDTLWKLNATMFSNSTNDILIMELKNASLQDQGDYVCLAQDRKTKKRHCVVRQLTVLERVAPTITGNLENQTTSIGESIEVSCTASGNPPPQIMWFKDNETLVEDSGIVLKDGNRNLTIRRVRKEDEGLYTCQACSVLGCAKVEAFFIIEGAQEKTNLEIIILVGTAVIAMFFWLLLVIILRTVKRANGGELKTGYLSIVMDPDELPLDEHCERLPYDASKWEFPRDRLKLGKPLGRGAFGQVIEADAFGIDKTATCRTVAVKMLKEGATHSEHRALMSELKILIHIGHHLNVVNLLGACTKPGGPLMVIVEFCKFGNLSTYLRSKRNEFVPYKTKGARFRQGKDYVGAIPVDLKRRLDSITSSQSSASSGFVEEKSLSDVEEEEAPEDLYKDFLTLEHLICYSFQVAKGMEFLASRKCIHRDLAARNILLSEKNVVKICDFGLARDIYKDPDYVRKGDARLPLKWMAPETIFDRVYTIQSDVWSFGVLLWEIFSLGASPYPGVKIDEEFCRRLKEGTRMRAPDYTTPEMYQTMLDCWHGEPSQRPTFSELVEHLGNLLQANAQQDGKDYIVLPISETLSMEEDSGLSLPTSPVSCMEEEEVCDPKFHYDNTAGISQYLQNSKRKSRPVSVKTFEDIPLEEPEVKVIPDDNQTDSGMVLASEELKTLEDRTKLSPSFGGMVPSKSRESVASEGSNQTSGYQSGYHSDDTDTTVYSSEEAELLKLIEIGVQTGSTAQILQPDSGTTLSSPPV

| Substance | VEGFR2 phosphorylation at Tyr1054/1059 (VEGFR2; HPSE^low cells in suspension) | VEGFR2 phosphorylation at Tyr1054/1059 (VEGFR2; HPSE^low cells plated on FN) | adhesion of P3X cells to FN [1] | invasion / migration of P3X cells through FN-coated filters [2] |
| --- | --- | --- | --- | --- |
| DFTFETSGENTAVVAVEPDRRNQSPVD [S1ED^210-236] | no alteration of VEGFR2 phosphorylation | causes VEGFR2 phosphorylation in HPSE^low cells plated on FN | – | – |
| S1ED^210-233: syndecan-1 ectodomain peptide, residues 210-233 (SEQ ID NO: 4) (DFTFETSGENTAVVAVEPDRRNQS) | – | – | blocks the adhesion of the myeloma cells to FN | blocked by either peptide |
